{"source": "patent US11324720B2", "about": "“Antiproliferative DNA polymerase inhibitor” (NEW YORK MEDICAL COLLEGE, priority 2018, dated 2022)", "key": {"[1]": {"test_system": "BRCA1/2 mutant population", "details": "maintenance therapy; cited from earlier work"}, "[2]": {"test_system": "HCC1395 cells", "assay": "MTT assay with PARP inhibitors with or without zelpolib", "assay_type": "cell-based, human", "details": "for sensitivity of HCC1395 cells to the PARP inhibitor alone: HR-proficient triple-negative breast cancer cell line", "method": "However, there have been minimal clinical benefits for HR-proficient cancers^37-41. Since zelpolib can inhibit HR, we explored the effect of zelpolib in combination with PARP inhibitors on HR-proficient cancer cells. The hypothesis is that zelpolib will lead to an HR-defect through inhibition of Pol δ and render HR-proficient cells sensitive to PARP inhibition. […] The cells were treated with increasing concentrations of PARP inhibitor Niraparib (FIG. 5B) or Rucaparib (FIG. 5C) in the absence or presence of 2.5 μM zelpolib for 48 hrs. The number of cells were then analyzed by MTT assay.\n(§1) Human cancer cells (5×10^3-7.5×10^3) were initially seeded in 96-well plates (Cellstar) containing 0.2 ml media per well. After 24 hrs, these cells were treated with variable concentrations drug combinations for 48-72 hrs. Subsequently, 4,5-dimethylthiazol-2-yl-2,5-diphenyltetrazolium bromide (MTT) (20 μl of 5 mg/ml) was added to each well for 3 hrs. Formazan crystals were then dissolved in 150 μl DMSO and optical density was read at 490 nm^25. All experiments were performed in triplicates. Results were analyzed by GraphPad Prism. Data represent mean value±SEM for each concentration of inhibitor combinations."}, "[3]": {"test_system": "MCF7 cells", "assay": "Cell proliferation assay, MTT method", "assay_type": "cell-based, human", "details": "72 h", "description": "DNA replication precedes cell division. Thus, cancer cells cannot divide and proliferate without successful chromosomal duplication. A DNA polymerase inhibitor should inhibit cancer cell proliferation. We characterized the antiproliferative properties of zelpolib on a number of cell lines originated from pancreatic cancer (BxPC-3) and breast cancer (MCF7 for ER+ breast cancer). In addition, we developed a cisplatin resistant subline of a pancreatic cancer cell line, R-BxPC3 for our studies as well. We used the MTT method^25 for analyzing cell proliferation. This assay is based on the reduction of 3-(4,5-dimethylthiazol-2-yl)-2,5-diphenyltetrazolium bromide by live cells to an insoluble formazon, which were subsequently dissolved in DMSO and quantified by UV absorbance. Therefore, the cell number is proportional to the optical density in the established linear region. […] The plateau phenomena indicate inhibition of proliferation without cell killing, similar to these observed from hydroxyurea^26, aphidicolin^27, and to a certain extent, methotrexate treatments^28. Direct inhibition of DNA polymerase activity provides a unique mechanism that is not employed by any of the current cancer therapeutics. We selected a number of most widely prescribed chemotherapeutics with distinct mechanisms to compare their antiproliferative potential in the 2 cancer cell lines. We included alkylating agent cisplatin, antimetabolites methotrexate and 5-flourouracil (5FU)^29-31. […] Whereas the comparison with cisplatin is biphasic.\nas §1"}}}
{"compound": "O=C(c1cc(Cc2n[nH]c(=O)c3ccccc23)ccc1F)N1CCN(C(=O)C2CC2)CC1", "note": "[olaparib]", "values": [{"measurement": "hazard ratio in progression-free survival", "setting": "[1]", "value": 0.18}, {"measurement": "reduction in the risk of progression or death", "setting": "[1]", "value": 82, "unit": "%"}]}
{"compound": "CNCc1ccc(-c2[nH]c3cc(F)cc4c3c2CCNC4=O)cc1", "note": "[Rucaparib]", "values": [{"measurement": "sensitivity of HCC1395 cells to the PARP inhibitor alone", "setting": "[2]", "value": "insensitive"}]}
{"compound": "N.N.[Cl][Pt][Cl]", "note": "[cisplatin, reference compound]", "values": [{"measurement": "antiproliferative activity, zelpolib versus cisplatin", "setting": "[3]", "value": "more effective beyond 5 μM"}]}
{"compound": "NC(=O)c1cccc2cn(-c3ccc([C@@H]4CCCNC4)cc3)nc12", "note": "[Niraparib]", "values": [{"measurement": "Niraparib concentration with 2.5 μM zelpolib that achieves the effect of 25 μM Niraparib alone", "setting": "[2]; HCC1395 proliferation, 48 hrs", "value": 5, "unit": "µM"}, {"measurement": "sensitivity of HCC1395 cells to the PARP inhibitor alone", "setting": "[2]", "value": "insensitive"}]}
